Results: patent US6548499B1, “Substituted quinoxaline derivatives as interleukin-8 receptor antagonists” (Millennium Pharmaceuticals, Inc., priority 1998, dated 2003)

Tested on: human neutrophils
Experiment: IL-8 chemotaxis assay
Assay type: cell-based
Conditions: Neutrophil, 0.5 h; freshly isolated human neutrophils, rhIL-8 as chemoattractant, 30 minutes at 37° C.
Method: Compounds of Formula I and II were evaluated for their effect on chemotaxis using methodology known in the art, e.g., Carr M. W., Roth S. J., Luther E., Rose S. S., and Springer T. A., “Monocyte chemoattractant protein 1 acts as a T-lymphocyte chemoattractant.” Proc. Natl. Acad Sci. USA, 1994;91:3652; Qin S., Larosa G., Campbell J. J. et al., “Expression of MCP-1 and IL-8 receptors on subset on T-cells, and correlation with transendothelial chemotactic potential,” Eur. J. Immu., 1996;26:640.
Briefly, freshly isolated human neutrophils were resuspended in chemotaxis buffer, which is made of one part of RPMI 1640 medium, one part of Medium 199, and 0.5% BSA. The cells were incubated with or without compounds for 5 minutes. Similarly, rhIL-8 was incubated in a separate plate, then transferred into lower chambers of chemotaxis plate. Neutrophils were added onto the top chamber. The plates were incubated at 37° C. for 30 minutes. The top chamber was then removed and the plate frozen at −80° C. for 30 minutes. After thawing, migrated cells were stained with Cytoquant Cell Proliferation Assay Kit (Molecular Probes No. C-7026) and quantitated by reading the plate on a fluorescent plate reader.

Compound | IC50 [µM]
CCN(CC)CCCCNc1nc2cc(Cl)c(Cl)cc2nc1-c1ccc(C)s1 [Example 28, N′-[6,7-Dichloro-3-(5-methyl-thiophen-2-yl)quinoxalin-2-yl]-N,N-diethyl-butane-1,4-diamine] | 0.4
CCN(CC)CCCCNc1nc2cc(Cl)c(Cl)cc2nc1-c1cc2ccccc2s1 [Example 25, N′(3-Benzo[b]thiophen-2-yl-6,7-dichloro-quinoxalin-2-yl)-N,N-4-diethyl-butane-1,4-diamine] | 0.31
CCN(CC)CCCCNc1nc2cc(Cl)c(Cl)cc2nc1-c1ccc(-c2cccs2)s1 [Example 34, N′-(3-[2,2′]Bithiophenyl-5-yl-6,7-dichloro-quinoxalin-2-yl)-N,N-diethyl-butane-1,4-diamine] | 0.08
CN(C)CCCNc1nc2cc(Cl)c(Cl)cc2nc1-c1ccco1 [Example 14, N′-(6,7-Dichloro-3-furan-2-yl-quinoxalin-2-yl)-N,N-dimethyl-propane-1,3-diamine] | 1.8
CN(C)CCCNc1nc2cc(Cl)c(Cl)cc2nc1-c1cccs1 [Example 15, N′-(6,7-Dichloro-3-thiophen-2-yl-quinoxalin-2-yl)-N,N-dimethyl-propane-1,3-diamine] | 0.32

Same assay, conditions: freshly isolated human neutrophils, rhIL-8 as chemoattractant, 30 minutes at 37° C.

Compound | IC50 [µM]
6-Chloro-N-[4-(dimethylamino)cyclohexyl]-3-(2-pyridinyl)-2-quinoxalinamine and 7-Chloro-N-[4-(dimethylamino)cyclohexyl]-3-(2-pyridinyl)-2-quinoxalinamine, Dihydrochloride, Hydrate [Example 1] | 0.89

Tested on: human neutrophils
Experiment: IL-8 calcium flux assay
Assay type: cell-based
Conditions: @ 11 μM; human neutrophils stimulated with human IL-8
Method: Compounds of Formula I and II were evaluated for their effect on calcium flux using methodology known in the art, e.g., Neote K., DiGregorio D., Mak J. Y., Horuk R., and Schall T. J., “Molecular cloning, functional expression, and signaling characteristics of a C—C chemokine receptor,” Cell, 1993;72:415.
Briefly, human neutrophils were incubated with the fluorescence dye FLUO-3 for 1 hour. The cells were washed after this loading period, resuspended in HANKs buffer, and loaded into a 96-well plate. Compound was added to each well. After a 2-minute incubation period, the cells were stimulated with human IL-8 and the calcium flux response recorded and quantified.

Compound | IL-8 Ca+2 Flux % Inhibition (μM) [% @ 11]
6-Chloro-N-[4-(dimethylamino)cyclohexyl]-3-(2-pyridinyl)-2-quinoxalinamine and 7-Chloro-N-[4-(dimethylamino)cyclohexyl]-3-(2-pyridinyl)-2-quinoxalinamine, Dihydrochloride, Hydrate [Example 1] | 34

Tested on: not given
Experiment: not given
Conditions: not given

Compound | melting point
c1ccc(-c2nc3ccccc3nc2NC2CN3CCC2CC3)nc1 (stereo not drawn) | 63 to 65 °C
CN(C)C1CCC(Nc2nc3cc(Cl)c(Cl)cc3nc2-c2ccccn2)CC1.Cl (stereo not drawn) | 180 to 182 °C
CCCc1ccc(-c2nc3cc(Cl)c(Cl)cc3nc2NCCCCN(CC)CC)s1.Cl | 165 to 167 °C
c1ccc(-c2nc3ccccc3nc2NCCCn2ccnc2)nc1 [Example 3, N-[3-(1H-Imidazol-1-yl)propyl]-3-(2-pyridinyl)-2-quinoxalinamine] | 85 to 86 °C
c1ccc(-c2nc3ccccc3nc2NCc2ccncc2)nc1 [Example 7, N-(4-Pyridinylmethyl)-3-(2-pyridinyl)-2-quinoxalinamine] | 142 to 144 °C
CCN(CC)CCCCNc1nc2cc(Cl)c(Cl)cc2nc1-c1cc2ccccc2[nH]1.Cl | 145 to 147 °C
CN(C)CCCCNc1nc2cc(F)c(F)cc2nc1-c1cccs1 [Example 17, N′-(6,7-Difluoro-3-thiophen-2-yl-quinoxalin-2-yl)-N,N-dimethyl-butane-1,4-diamine] | 175 to 177 °C
CCN(CC)CCCCNc1nc2cc(Cl)c(Cl)cc2nc1-c1cccc2c1sc1ccccc12.Cl | 134 to 136 °C
CCN(CC)CCCCNc1nc2cc(Cl)c(Cl)cc2nc1-c1cc2ccccc2o1.Cl | 220 °C
CCN(CC)Cc1ccc(Nc2nc3cc(Cl)c(Cl)cc3nc2-c2ccccn2)cc1 [Example 13, (6,7-Dichloro-3-pyridin-2-yl-quinoxalin-2-yl)-(4-diethylaminomethyl-phenyl)-amine] | 250 to 252 °C (dec.)
CN1CCCC1CCNc1nc2ccccc2nc1-c1ccccn1 (stereo not drawn) [Example 4, N-[2-(1-Methyl-2-pyrrolidinyl)ethyl]-3-(2-pyridinyl)-2-quinoxalinamine] | 186 to 188 °C
c1ccc(-c2nc3ccccc3nc2Nc2ccc(N3CCOCC3)cc2)nc1 [Example 6, N-[4-(4-Morpholinyl)phenyl]-3-(2-pyridinyl)-2-quinoxalinamine] | 205 to 206 °C
Cl.N[C@H]1CC[C@H](Nc2nc3cc(Cl)c(Cl)cc3nc2-c2ccccn2)CC1 | 280 to 282 °C (dec.)
Cl.Clc1cc2nc(-c3ccccn3)c(N3CCC(N4CCCCC4)CC3)nc2cc1Cl | 275 to 277 °C (dec.)
CN(C)c1ccc(Nc2nc3ccccc3nc2-c2ccccn2)cc1 [Example 8, N-[4-(Dimethylamino)phenyl]-3-(2-pyridinyl)-2-quinoxalinamine] | 169 to 170 °C
CC(=O)N(C)c1ccc(Nc2nc3ccccc3nc2-c2ccccn2)cc1 [Example 9, N-Methyl-N-[4-[[3-(2-pyridinyl)-2-quinoxalinyl]amino]phenyl]-acetamide] | 165 to 166 °C
CCN(CC)CCCCNc1nc2cc(Cl)c(Cl)cc2nc1-c1ccc(Cl)s1.Cl | 98 to 100 °C
